Measurements reported in PubChem BioAssay (NCI).
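Assay format: 96-well plates, 48-hour exposure. Here, GI50 denotes the concentration required for 50% inhibition of growth. TGI: concentration producing complete growth inhibition.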

Tests used:
Assay in all cases: DTP human tumour cell line panel, 48 h
[1] = system: 786-0 renal
[2] = system: A498 renal
[3] = system: A549 NSCLC
[4] = system: ACHN renal
[5] = system: BT-549 breast
[6] = system: CAKI-1 renal
[7] = system: CCRF-CEM leukemia
[8] = system: COLO 205 colon
[9] = system: DU-145 prostate
[10] = system: EKVX NSCLC
[11] = system: HCC-2998 colon
[12] = system: HCT-116 colon
[13] = system: HCT-15 colon
[14] = system: HL-60(TB) leukemia
[15] = system: HOP-62 NSCLC
[16] = system: HOP-92 NSCLC
[17] = system: HS 578T breast
[18] = system: HT29 colon
[19] = system: IGROV1 ovarian
[20] = system: K-562 leukemia
[21] = system: KM12 colon
[22] = system: LOX IMVI melanoma
[23] = system: M14 melanoma
[24] = system: MALME-3M melanoma
[25] = system: MCF7 breast
[26] = system: MDA-MB-231 breast
[27] = system: MDA-MB-435
[28] = system: MOLT-4 leukemia
[29] = system: NCI-H226 lung
[30] = system: NCI-H23 lung
[31] = system: NCI-H460 lung
[32] = system: NCI-H522 lung
[33] = system: NCI/ADR-RES ovarian
[34] = system: OVCAR-3 ovarian
[35] = system: OVCAR-4 ovarian
[36] = system: OVCAR-5 ovarian
[37] = system: OVCAR-8 ovarian
[38] = system: PC-3 prostate
[39] = system: RPMI-8226 leukemia
[40] = system: RXF 393 renal
[41] = system: SF-268 CNS
[42] = system: SF-295 CNS
[43] = system: SF-539 CNS
[44] = system: SK-MEL-2 melanoma
[45] = system: SK-MEL-28 melanoma
[46] = system: SK-MEL-5 melanoma
[47] = system: SK-OV-3 ovarian
[48] = system: SN12C renal
[49] = system: SNB-19 CNS
[50] = system: SNB-75 CNS
[51] = system: SW-620 colon
[52] = system: T-47D breast
[53] = system: TK-10 renal
[54] = system: U251 CNS
[55] = system: UACC-257 melanoma
[56] = system: UACC-62 melanoma
[57] = system: UO-31 renal

Compound: COc1cc2cc(Oc3ccc(NC(=O)Nc4ccc(Cl)c(C(F)(F)F)c4)cc3)c(C)nc2cc1OCCN1CCOCC1
- GI50 [1]: 1.89 µM
- TGI [1]: 4.15 µM
- GI50 [2]: 2.45 µM
- TGI [2]: 9.62 µM
- GI50 [3]: 2.13 µM
- TGI [3]: > 100 µM
- GI50 [4]: 2.03 µM
- TGI [4]: 11.6 µM
- GI50 [5]: 2.63 µM
- TGI [5]: 9.33 µM
- GI50 [6]: 1.8 µM
- TGI [6]: 10.8 µM
- GI50 [7]: 1.45 µM
- TGI [7]: > 100 µM
- GI50 [8]: 1.63 µM
- TGI [8]: 3.78 µM
- GI50 [9]: 2.69 µM
- TGI [9]: 13.8 µM
- GI50 [10]: 2.07 µM
- TGI [10]: 13.7 µM
- GI50 [11]: 3.68 µM
- TGI [11]: 11.1 µM
- GI50 [12]: 1.2 µM
- TGI [12]: 10.8 µM
- GI50 [13]: 1.45 µM
- TGI [13]: 3.18 µM
- GI50 [14]: 2.32 µM
- TGI [14]: 7.55 µM
- GI50 [15]: 2.05 µM
- TGI [15]: 4.55 µM
- GI50 [16]: 1.66 µM
- TGI [16]: 6.16 µM
- GI50 [17]: 1.83 µM
- TGI [17]: 5.11 µM
- GI50 [18]: 2.57 µM
- TGI [18]: 11.2 µM
- GI50 [19]: 2.43 µM
- TGI [19]: 23.2 µM
- GI50 [20]: 0.669 µM
- TGI [20]: 6.95 µM
- GI50 [21]: 1.91 µM
- TGI [21]: 5.3 µM
- GI50 [22]: 1.39 µM
- TGI [22]: 2.81 µM
- GI50 [23]: 1.52 µM
- TGI [23]: 3.45 µM
- GI50 [24]: 1.52 µM
- TGI [24]: 3.27 µM
- GI50 [25]: 1.26 µM
- TGI [25]: 3.33 µM
- GI50 [26]: 2 µM
- TGI [26]: 5.07 µM
- GI50 [27]: 1.94 µM
- TGI [27]: 4.1 µM
- GI50 [28]: 1.48 µM
- TGI [28]: 10.5 µM
- GI50 [29]: 1.86 µM
- TGI [29]: 5.91 µM
- GI50 [30]: 1.12 µM
- TGI [30]: 3.89 µM
- GI50 [31]: 1.65 µM
- TGI [31]: 3.62 µM
- GI50 [32]: 1.43 µM
- TGI [32]: 4.07 µM
- GI50 [33]: 2.34 µM
- TGI [33]: 12.6 µM
- GI50 [34]: 1.52 µM
- TGI [34]: 3.47 µM
- GI50 [35]: 0.582 µM
- TGI [35]: 3.41 µM
- GI50 [36]: 4.02 µM
- TGI [36]: 65.2 µM
- GI50 [37]: 2.67 µM
- TGI [37]: > 100 µM
- GI50 [38]: 1.36 µM
- TGI [38]: 6 µM
- GI50 [39]: 0.936 µM
- TGI [39]: 4.34 µM
- GI50 [40]: 1.77 µM
- TGI [40]: 3.99 µM
- GI50 [41]: 2.59 µM
- TGI [41]: 8.44 µM
- GI50 [42]: 1.19 µM
- TGI [42]: 2.85 µM
- GI50 [43]: 1.68 µM
- TGI [43]: 3.26 µM
- GI50 [44]: 1.65 µM
- TGI [44]: 4.06 µM
- GI50 [45]: 1.55 µM
- TGI [45]: 3.12 µM
- GI50 [46]: 1.14 µM
- TGI [46]: 2.37 µM
- GI50 [47]: 3.34 µM
- TGI [47]: 17.5 µM
- GI50 [48]: 2.56 µM
- TGI [48]: 56.2 µM
- GI50 [49]: 3.23 µM
- TGI [49]: 19.8 µM
- GI50 [50]: 1.65 µM
- TGI [50]: 7.05 µM
- GI50 [51]: 2.31 µM
- TGI [51]: 5.52 µM
- GI50 [52]: 1.32 µM
- TGI [52]: 5.2 µM
- GI50 [53]: 4.97 µM
- TGI [53]: 35.2 µM
- GI50 [54]: 1.76 µM
- TGI [54]: 3.89 µM
- GI50 [55]: 1.57 µM
- TGI [55]: 4.55 µM
- GI50 [56]: 1.36 µM
- TGI [56]: 3.46 µM
- GI50 [57]: 1.4 µM
- TGI [57]: 3.34 µM
